# Test results as given in ChEMBL document CHEMBL1201861, “Genomics of Drug Sensitity in Cancer screening data, Wellcome Trust Sanger Institute”.
# Columns and labels:
# Test in all cases: cells
# Settings in all cases: Homo sapiens
# [1] = test system: ES5; assay type: functional, cell-based;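 further: growth inhibition of human ES5 cells, read out by a cell viability assay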
# Description: SANGER: Inhibition of human ES5 cell growth in a cell viability assay.
# [2] = test system: KM-H2; assay type: functional, cell-based;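 further: growth inhibition of KM-H2 cells, read out by a cell viability assay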
# Description: SANGER: Inhibition of human KM-H2 cell growth in a cell viability assay.
# [3] = test system: NTERA-2-cl-D1; assay type: functional, cell-based;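 further: inhibition of cell growth, measured with a cell viability assay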
# Description: SANGER: Inhibition of human NTERA-S-cl-D1 cell growth in a cell viability assay.
# [4] = test system: OS-RC-2; assay type: functional, cell-based;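 further: growth inhibition of human OS-RC-2 cells, measured by a cell viability assay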
# Description: SANGER: Inhibition of human OS-RC-2 cell growth in a cell viability assay.
# [5] = test system: JAR; assay type: functional, cell-based;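 further: growth inhibition of human JAR cells determined with a cell viability assay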
# Description: SANGER: Inhibition of human JAR cell growth in a cell viability assay.
# [6] = test system: A498; assay type: functional, cell-based;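 further: growth inhibition of human A498 cells, read out with a cell viability assay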
# Description: SANGER: Inhibition of human A498 cell growth in a cell viability assay.
# [7] = test system: KM12; assay type: functional, cell-based;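 further: KM12 cell growth inhibition, read out with a cell viability assay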
# Description: SANGER: Inhibition of human KM12 cell growth in a cell viability assay.
# [8] = test system: RH-1; assay type: functional, cell-based;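 further: growth inhibition of human RH-1 cells, read out with a cell viability assay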
# Description: SANGER: Inhibition of human RH-1 cell growth in a cell viability assay.
# [9] = test system: BV-173; assay type: functional, cell-based
# Description: SANGER: Inhibition of human BV-173 cell growth in a cell viability assay.
# [10] = test system: COLO-824; assay type: functional, cell-based
# Description: SANGER: Inhibition of human COLO-824 cell growth in a cell viability assay.
# [11] = test system: LNCaP-Clone-FGC; assay type: functional, cell-based
# Description: SANGER: Inhibition of human LNCaP-Clone-FGC cell growth in a cell viability assay.
# [12] = test system: MN-60; assay type: functional, cell-based;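 further: growth inhibition of the MN-60 cell line, determined with a cell viability assay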
# Description: SANGER: Inhibition of human MN-60 cell growth in a cell viability assay.
# [13] = test system: DOHH-2; assay type: functional, cell-based;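 further: growth inhibition of human DOHH-2 cells, read out with a cell viability assay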
# Description: SANGER: Inhibition of human DOHH-2 cell growth in a cell viability assay.
# [14] = test system: OCUB-M; assay type: functional, cell-based;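 further: growth inhibition of the cancer cell line, read out through a cell viability assay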
# Description: SANGER: Inhibition of human OCUB-M cell growth in a cell viability assay.
# [15] = test system: BE-13; assay type: functional, cell-based;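 further: growth inhibition of human BE-13 cells, measured with a cell viability assay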
# Description: SANGER: Inhibition of human BE-13 cell growth in a cell viability assay.
# [16] = test system: A388; assay type: functional, cell-based;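 further: growth inhibition of human A388 cells, read out with a cell viability assay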
# Description: SANGER: Inhibition of human A388 cell growth in a cell viability assay.
# [17] = test system: CCRF-CEM; assay type: functional, cell-based;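 further: inhibition of CCRF-CEM cell growth, measured by a cell viability assay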
# Description: SANGER: Inhibition of human CCRF-CEM cell growth in a cell viability assay.
# [18] = test system: SCH; assay type: functional, cell-based;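 further: growth inhibition of human SCH cells, read out in a cell viability assay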
# Description: SANGER: Inhibition of human SCH cell growth in a cell viability assay.
# [19] = test system: MOLT-16; assay type: functional, cell-based;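 further: growth inhibition of human MOLT-16 cells, read out with a cell viability assay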
# Description: SANGER: Inhibition of human MOLT-16 cell growth in a cell viability assay.
# [20] = test system: TE-6; assay type: functional, cell-based;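 further: growth inhibition of TE-6 cells, read out with a cell viability assay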
# Description: SANGER: Inhibition of human TE-6 cell growth in a cell viability assay.
# [21] = test system: TE-11; assay type: functional, cell-based;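 further: growth inhibition of human TE-11 cells, read out by a cell viability assay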
# Description: SANGER: Inhibition of human TE-11 cell growth in a cell viability assay.
# [22] = test system: HL-60; assay type: functional, cell-based;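 further: growth inhibition of human HL-60 cells, read out with a cell viability assay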
# Description: SANGER: Inhibition of human HL-60 cell growth in a cell viability assay.
# [23] = test system: SK-UT-1; assay type: functional, cell-based;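 further: growth inhibition of SK-UT-1 cells, measured by a cell viability assay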
# Description: SANGER: Inhibition of human SK-UT-1 cell growth in a cell viability assay.
# [24] = test system: EW-13; assay type: functional, cell-based;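 further: growth inhibition of EW-13 cells, read out with a cell viability assay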
# Description: SANGER: Inhibition of human EW-13 cell growth in a cell viability assay.
# [25] = test system: HuTu80; assay type: functional, cell-based, HUTU-80;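 further: growth inhibition of HuTu80 human cells, determined with a cell viability readout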
# Description: SANGER: Inhibition of human HUTU-80 cell growth in a cell viability assay.
# [26] = test system: KY821; assay type: functional, cell-based;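 further: growth inhibition of human KY821 cells, read out by a cell viability assay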
# Description: SANGER: Inhibition of human KY821 cell growth in a cell viability assay.
# [27] = test system: ETK-1; assay type: functional, cell-based;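 further: growth inhibition of human ETK-1 cells, read out with a cell viability assay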
# Description: SANGER: Inhibition of human ETK-1 cell growth in a cell viability assay.
# [28] = test system: BB49-HNC; assay type: functional, cell-based;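 further: cell viability assay read-out, reported as inhibition of BB49-HNC cell growth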
# Description: SANGER: Inhibition of human BB49-HNC cell growth in a cell viability assay.
# [29] = test system: MEG-01; assay type: functional, cell-based;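 further: growth inhibition of MEG-01 cells, read out by a cell viability assay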
# Description: SANGER: Inhibition of human MEG-01 cell growth in a cell viability assay.
# [30] = test system: NCI-H1304; assay type: functional, cell-based;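 further: growth inhibition of the cancer cell line, measured in a cell viability assay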
# Description: SANGER: Inhibition of human NCI-H1304 cell growth in a cell viability assay.
# [31] = test system: SNU-5; assay type: functional, cell-based;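 further: cell viability readout used to measure growth inhibition in human NCI-SNU-5 cells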
# Description: SANGER: Inhibition of human NCI-SNU-5 cell growth in a cell viability assay.
# [32] = test system: IST-MEL1; assay type: functional, cell-based;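 further: growth inhibition of the cell line, read out with a cell viability assay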
# Description: SANGER: Inhibition of human IST-MEL1 cell growth in a cell viability assay.
# [33] = test system: TE-10; assay type: functional, cell-based;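 further: growth inhibition of TE-10 cells, measured by a cell viability assay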
# Description: SANGER: Inhibition of human TE-10 cell growth in a cell viability assay.
# [34] = test system: C8166; assay type: functional, cell-based;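 further: growth inhibition of human C8166 cells measured by a cell viability assay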
# Description: SANGER: Inhibition of human C8166 cell growth in a cell viability assay.
# [35] = test system: NCI-H82; assay type: functional, cell-based;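 further: growth inhibition of NCI-H82 cells, measured with a cell viability readout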
# Description: SANGER: Inhibition of human NCI-H82 cell growth in a cell viability assay.
# [36] = test system: A704; assay type: functional, cell-based;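 further: growth inhibition of human A704 cells, read out with a cell viability assay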
# Description: SANGER: Inhibition of human A704 cell growth in a cell viability assay.
# [37] = test system: LB1047-RCC; assay type: functional, cell-based;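 further: inhibition of cell growth, determined with a cell viability assay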
# Description: SANGER: Inhibition of human LB1047-RCC cell growth in a cell viability assay.
# [38] = test system: KNS-42; assay type: functional, cell-based;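 further: growth inhibition of KNS-42 cells, read out with a cell viability assay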
# Description: SANGER: Inhibition of human KNS-42 cell growth in a cell viability assay.
# [39] = test system: EW-1; assay type: functional, cell-based;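 further: growth inhibition of the human EW-1 cell line, read out by a cell viability assay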
# Description: SANGER: Inhibition of human EW-1 cell growth in a cell viability assay.
# [40] = test system: L-428; assay type: functional, cell-based
# Description: SANGER: Inhibition of human L-428 cell growth in a cell viability assay.
# [41] = test system: GT3TKB; assay type: functional, cell-based;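 further: growth inhibition of the cell line, read out with a cell viability assay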
# Description: SANGER: Inhibition of human GT3TKB cell growth in a cell viability assay.
# [42] = test system: KS-1; assay type: functional, cell-based;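 further: growth inhibition of KS-1 cells, read out with a cell viability assay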
# Description: SANGER: Inhibition of human KS-1 cell growth in a cell viability assay.
# [43] = test system: MHH-NB-11; assay type: functional, cell-based;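 further: growth inhibition of human MHH-NB-11 cells, read out by a cell viability assay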
# Description: SANGER: Inhibition of human MHH-NB-11 cell growth in a cell viability assay.
# [44] = test system: HEL; assay type: functional, cell-based;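 further: growth inhibition of HEL cells, read out with a cell viability assay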
# Description: SANGER: Inhibition of human HEL cell growth in a cell viability assay.
# [45] = test system: C2BBe1; assay type: functional, cell-based;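 further: growth inhibition of C2BBe1 cells, read out through a viability assay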
# Description: SANGER: Inhibition of human C2BBe1 cell growth in a cell viability assay.
# [46] = test system: CTV-1; assay type: functional, cell-based;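 further: growth inhibition of the cell line, read out with a cell viability assay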
# Description: SANGER: Inhibition of human CTV-1 cell growth in a cell viability assay.
# [47] = test system: COR-L88; assay type: functional, cell-based;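 further: growth inhibition of COR-L88 cells, read out with a cell viability assay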
# Description: SANGER: Inhibition of human COR-L88 cell growth in a cell viability assay.
# [48] = test system: RCC10RGB; assay type: functional, cell-based;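 further: growth inhibition of human RCC10RGB cells, read out by a cell viability assay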
# Description: SANGER: Inhibition of human RCC10RGB cell growth in a cell viability assay.
# [49] = test system: SK-LMS-1; assay type: functional, cell-based;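 further: growth inhibition of human SK-LMS-1 cells, read out with a cell viability assay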
# Description: SANGER: Inhibition of human SK-LMS-1 cell growth in a cell viability assay.
# [50] = test system: ES4; assay type: functional, cell-based;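 further: growth inhibition of human ES4 cells, read out by a cell viability assay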
# Description: SANGER: Inhibition of human ES4 cell growth in a cell viability assay.
# [51] = test system: LAMA-84; assay type: functional, cell-based;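 further: growth inhibition of LAMA-84 cells, read out with a cell viability assay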
# Description: SANGER: Inhibition of human LAMA-84 cell growth in a cell viability assay.
# [52] = test system: NOMO-1; assay type: functional, cell-based;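 further: growth inhibition of human NOMO-1 cells measured by a cell viability assay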
# Description: SANGER: Inhibition of human NOMO-1 cell growth in a cell viability assay.
# [53] = test system: DSH1; assay type: functional, cell-based
# Description: SANGER: Inhibition of human DSH1 cell growth in a cell viability assay.
# [54] = test system: D-263MG; assay type: functional, cell-based
# Description: SANGER: Inhibition of human D-263MG cell growth in a cell viability assay.
# [55] = test system: Mo; assay type: functional, cell-based
# Description: SANGER: Inhibition of human Mo-T cell growth in a cell viability assay.
# [56] = test system: 8-MG-BA; assay type: functional, cell-based
# Description: SANGER: Inhibition of human 8-MG-BA cell growth in a cell viability assay.
# [57] = test system: KARPAS-45; assay type: functional, cell-based
# Description: SANGER: Inhibition of human KARPAS-45 cell growth in a cell viability assay.
# [58] = test system: MFM-223; assay type: functional, cell-based
# Description: SANGER: Inhibition of human MFM-223 cell growth in a cell viability assay.
# [59] = test system: KE-37; assay type: functional, cell-based
# Description: SANGER: Inhibition of human KE-37 cell growth in a cell viability assay.
# [60] = test system: BT-474; assay type: functional, cell-based
# Description: SANGER: Inhibition of human BT-474 cell growth in a cell viability assay.
# [61] = test system: COLO-684; assay type: functional, cell-based
# Description: SANGER: Inhibition of human COLO-684 cell growth in a cell viability assay.
# [62] = test system: MMAC-SF; assay type: functional, cell-based
# Description: SANGER: Inhibition of human MMAC-SF cell growth in a cell viability assay.
# [63] = test system: LB831-BLC; assay type: functional, cell-based
# Description: SANGER: Inhibition of human LB831-BLC cell growth in a cell viability assay.
# [64] = test system: A3-KAW; assay type: functional, cell-based
# Description: SANGER: Inhibition of human A3-KAW cell growth in a cell viability assay.
# [65] = test system: LXF-289 cell line; assay type: functional, cell-based
# Description: SANGER: Inhibition of human LXF-289 cell growth in a cell viability assay.
compound,measurement,setting,value
CCCS(=O)(=O)Nc1ccc(F)c(C(=O)c2c[nH]c3ncc(Cl)cc23)c1F [PLX-4720],IC50,[1],6.15 µM
same,IC50,[2],> 10 µM
same,IC50,[3],> 10 µM
same,IC50,[4],> 10 µM
same,IC50,[5],> 10 µM
same,IC50,[6],> 10 µM
same,IC50,[7],> 10 µM
same,IC50,[8],> 10 µM
same,IC50,[9],0.796 µM
same,IC50,[10],> 10 µM
same,IC50,[11],> 10 µM
same,IC50,[12],> 10 µM
same,IC50,[13],> 10 µM
same,IC50,[14],> 10 µM
same,IC50,[15],> 10 µM
same,IC50,[16],> 10 µM
same,IC50,[17],> 10 µM
same,IC50,[18],> 10 µM
same,IC50,[19],> 10 µM
same,IC50,[20],> 10 µM
same,IC50,[21],> 10 µM
same,IC50,[22],> 10 µM
same,IC50,[23],> 10 µM
same,IC50,[24],> 10 µM
same,IC50,[25],> 10 µM
same,IC50,[26],9.05 µM
same,IC50,[27],> 10 µM
same,IC50,[28],> 10 µM
same,IC50,[29],> 10 µM
same,IC50,[30],> 10 µM
same,IC50,[31],2.12 µM
same,IC50,[32],> 10 µM
same,IC50,[33],> 10 µM
same,IC50,[34],> 10 µM
same,IC50,[35],> 10 µM
same,IC50,[36],> 10 µM
same,IC50,[37],> 10 µM
same,IC50,[38],> 10 µM
same,IC50,[39],> 10 µM
same,IC50,[40],> 10 µM
same,IC50,[41],> 10 µM
same,IC50,[42],> 10 µM
same,IC50,[43],> 10 µM
same,IC50,[44],> 10 µM
same,IC50,[45],> 10 µM
same,IC50,[46],> 10 µM
same,IC50,[47],> 10 µM
same,IC50,[48],> 10 µM
same,IC50,[49],> 10 µM
same,IC50,[50],> 10 µM
same,IC50,[51],> 10 µM
same,IC50,[52],> 10 µM
same,IC50,[53],> 10 µM
same,IC50,[54],> 10 µM
same,IC50,[55],> 10 µM
same,IC50,[56],6.18 µM
same,IC50,[57],2.05 µM
same,IC50,[58],> 10 µM
same,IC50,[59],> 10 µM
same,IC50,[60],> 10 µM
same,IC50,[61],> 10 µM
same,IC50,[62],0.686 µM
same,IC50,[63],> 10 µM
same,IC50,[64],> 10 µM
same,IC50,[65],> 10 µM
